# How the values were obtained:
# [1] = test system: neointimal formation; conditions: rats; cited from earlier work
# [2] = target: CDK6/cyclin D1 (Homo sapiens (Human), UniProt Q00534); test: Biochemical kinase inhibitory assay, CDK6/cyclin D1; conditions: in the presence of 10 μM ATP
# Experimental: Potency determination in the biochemical kinase inhibitory assay. Kinase activity assay and IC50 determination. […] The kinase reaction was initiated by the addition of 1 μg (1.5 μM) of recombinant retinoblastoma protein, 5 μM ATP and 10μ Ci γ-32P-ATP. The reaction was incubated at 30° C. for 20 minutes, and the reaction was stopped by the addition of 2× Laemmli sample buffer, heated at 95° C. for three minutes, and dissolved in 12% acrylamide SDS-PAGE for autoradiography. The corresponding phosphorylated substrate protein bands were quantified using a densitometer (Bio-Rad). […] The compounds disclosed herein were tested in a similar manner for their inhibitory activities against CDK6/cyclin D1, CDK2/cyclin A, CDK5/cyclin P25, CDK9/cyclin Ti, CDK7/cyclin H and CDK19/cyclin C. […] The reaction took place in the presence of 10 μM ATP.
# [3] = target: CDK4/cyclin D1 (Homo sapiens (Human), UniProt P11802); test: Biochemical kinase inhibitory assay, CDK4/cyclin D1; conditions: recombinant CDK4/cyclin D1; in the presence of 10 μM ATP
# Sequence of CDK4/cyclin D1 (P11802 whole entry): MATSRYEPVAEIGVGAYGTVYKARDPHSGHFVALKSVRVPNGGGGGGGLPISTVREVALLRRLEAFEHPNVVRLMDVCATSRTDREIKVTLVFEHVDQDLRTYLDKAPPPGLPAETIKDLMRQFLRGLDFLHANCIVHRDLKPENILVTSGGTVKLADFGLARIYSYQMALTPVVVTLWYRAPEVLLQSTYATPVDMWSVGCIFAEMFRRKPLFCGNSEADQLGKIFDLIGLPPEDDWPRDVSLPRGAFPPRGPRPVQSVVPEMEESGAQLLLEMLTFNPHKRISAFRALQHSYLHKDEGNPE
# Sequence of CDK4/cyclin D1 (P24385 whole entry partner): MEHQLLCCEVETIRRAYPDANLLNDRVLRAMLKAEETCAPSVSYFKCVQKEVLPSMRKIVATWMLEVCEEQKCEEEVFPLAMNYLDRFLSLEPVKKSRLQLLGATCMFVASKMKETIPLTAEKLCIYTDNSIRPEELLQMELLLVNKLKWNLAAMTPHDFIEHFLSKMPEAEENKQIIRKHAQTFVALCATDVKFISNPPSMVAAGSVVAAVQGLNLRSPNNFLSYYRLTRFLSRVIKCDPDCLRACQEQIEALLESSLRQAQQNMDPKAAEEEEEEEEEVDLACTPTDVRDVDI
# Experimental: Potency determination in the biochemical kinase inhibitory assay. Kinase activity assay and IC50 determination. […] The kinase reaction was initiated by the addition of 1 μg (1.5 μM) of recombinant retinoblastoma protein, 5 μM ATP and 10μ Ci γ-32P-ATP. The reaction was incubated at 30° C. for 20 minutes, and the reaction was stopped by the addition of 2× Laemmli sample buffer, heated at 95° C. for three minutes, and dissolved in 12% acrylamide SDS-PAGE for autoradiography. The corresponding phosphorylated substrate protein bands were quantified using a densitometer (Bio-Rad). […] The reaction took place in the presence of 10 μM ATP.
# Sequence of CDK6/cyclin D1 (Q00534 whole entry): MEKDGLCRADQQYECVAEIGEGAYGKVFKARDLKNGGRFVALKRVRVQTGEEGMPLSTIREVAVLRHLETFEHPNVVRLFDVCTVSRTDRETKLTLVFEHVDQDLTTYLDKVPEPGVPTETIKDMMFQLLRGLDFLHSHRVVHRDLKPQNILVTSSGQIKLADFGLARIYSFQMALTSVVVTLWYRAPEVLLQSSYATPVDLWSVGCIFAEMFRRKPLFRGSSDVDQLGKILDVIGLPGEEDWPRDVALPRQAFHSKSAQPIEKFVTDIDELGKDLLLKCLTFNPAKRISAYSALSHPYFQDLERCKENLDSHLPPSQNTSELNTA
# Sequence of CDK6/cyclin D1 (P24385 whole entry partner): as the sequence (P24385 whole entry partner) above
IC50 [2] [nM],IC50 [3] [nM],SMILES,inhibition of neointimal formation [1]
,,COc1ccc(CNc2nc(N(CCO)CCO)nc3c2ncn3C(C)C)cc1 [CVT-313],more than 80%
2 to 10,2 to 10,CCN1CCN(c2cnc(Nc3ncc4ccc5ncn(C(C)C)c5c4n3)cc2C)CC1 [Compound I-6],
10 to 50,10 to 50,CC(C)n1cnc2ccc3cnc(Nc4ccc(N5CCC6(CC5)CNC6)cn4)nc3c21 [Compound I-31],
2 to 10,2 to 10,Cc1cc(Nc2ncc3ccc4ncn(C(C)C)c4c3n2)ncc1N1CCN(C)CC1 [Compound I-3],
2 to 10,2 to 10,Cc1cc(Nc2ncc3cc(C)c4ncn(C(C)C)c4c3n2)ncc1N1CCNCC1 [Compound I-73],
10 to 50,10 to 50,CC(C)n1cnc2ccc3cnc(Nc4ccc(N5CCN(CCO)CC5)cn4)nc3c21 [Compound I-15],
10 to 50,10 to 50,Cc1nc(Nc2ncc3ccc4ncn(C5CC5)c4c3n2)ccc1N1CCOCC1 [Compound I-51],
2 to 10,2 to 10,CC(C)n1cnc2c(Br)cc3cnc(Nc4ccc(N5CCOCC5)cn4)nc3c21 [Compound I-70],
10 to 50,10 to 50,CC(C)n1cnc2ccc3cnc(Nc4cc(F)c(N5CCNCC5)cn4)nc3c21 [Compound I-13],
10 to 50,10 to 50,CCn1cnc2ccc3cnc(Nc4ccc(N5CCNCC5)cn4)nc3c21 [Compound I-42],
50 to 100,50 to 100,Cc1cc2ncn(C(C)C)c2c2nc(Nc3ccc(N4CCNCC4)cn3)ncc12 [Compound I-62],
10 to 50,10 to 50,CC(C)n1cnc2ccc3cnc(Nc4ccc(N5CC6(CCNCC6)C5)cn4)nc3c21 [Compound I-32],
10 to 50,10 to 50,CC(C)n1cnc2ccc3cnc(Nc4ccc(N5CCN(CCO)CC5)cc4)nc3c21 [Compound I-34],
50 to 100,50 to 100,Cc1cc2ncn(C(C)C)c2c2nc(Nc3ccc(N4CCOC(C)C4)cn3)ncc12 (stereo not drawn) [Compound I-66],
10 to 50,10 to 50,CCn1cnc2ccc3cnc(Nc4ccc(N5C[C@@H](C)O[C@@H](C)C5)cn4)nc3c21 [Compound I-44],
10 to 50,10 to 50,CC(C)n1cnc2ccc3cnc(Nc4ccc(N5CCCNCC5)cn4)nc3c21 [Compound I-14],
10 to 50,10 to 50,Cc1cc(Nc2ncc3ccc4ncn(C5CCC5)c4c3n2)ncc1N1CCNCC1 [Compound I-53],

# Source: patent US12428423B2, “1H-imidazo[4,5-h]quinazoline compound as protein kinase inhibitor” (SHENGKE PHARMACEUTICALS (JIANGSU) LTD., priority 2017, dated 2025)
